Reference: patent US20160318866A1, “SUBSTITUTED BIPIPERIDINYL DERIVATIVES” (Bayer Pharma Aktiengesellschaft, priority 2013, published 2016)
Counter-ions that a name gives are not always drawn.

What follows are compounds tested against T1, human α2C receptor (Homo sapiens, UniProt P18825) (assay: Antagonism against the adrenoreceptor α2C (luminescence, recombinant CHO cell line)). Details: antagonism against adrenoreceptor α2C; noradrenaline 20 nM; tested up to 10 μM; read-out: IC50.
T1 construct: expressed in transfected cells; host or cells: CHO cells, also recombinantly expressing chimeric G protein Gαqi3 and mitochondrial obelin (mtOb)
T1 sequence (P18825 1-462): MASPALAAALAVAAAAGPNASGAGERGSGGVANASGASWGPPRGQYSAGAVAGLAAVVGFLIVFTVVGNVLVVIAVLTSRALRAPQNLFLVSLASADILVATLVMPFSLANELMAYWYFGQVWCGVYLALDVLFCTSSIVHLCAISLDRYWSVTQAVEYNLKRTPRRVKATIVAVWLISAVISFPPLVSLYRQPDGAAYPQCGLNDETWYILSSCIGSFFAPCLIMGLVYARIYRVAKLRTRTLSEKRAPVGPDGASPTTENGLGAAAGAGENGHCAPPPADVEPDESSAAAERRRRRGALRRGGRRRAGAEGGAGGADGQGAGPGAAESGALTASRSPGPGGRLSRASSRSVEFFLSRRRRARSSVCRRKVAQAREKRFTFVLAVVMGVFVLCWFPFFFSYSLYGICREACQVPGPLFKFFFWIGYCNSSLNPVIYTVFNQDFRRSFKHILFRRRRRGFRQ
Assay type: cell-based
Method: Antagonism against the adrenoreceptor α1A was tested using a recombinant human α1A receptor CHO cell line which additionally also recombinantly expresses mtAeq (mitochondrial aequorin). Antagonism against the adrenoreceptor α2A was tested using a recombinant human α2A-Gα16 receptor fusion protein CHO cell line (PerkinElmer Life Sciences) which additionally also recombinantly expresses mtAeq. Antagonism against the adrenoreceptor α2B was tested using a recombinant human α2B receptor CHO cell line (PerkinElmer Life Sciences) which additionally also recombinantly expresses mtAeq. Antagonism against the adrenoreceptor α2C was tested using a recombinant human α2C receptor CHO cell line which additionally also recombinantly expresses a chimaric G protein (Gαqi3) and mtOb (mitochondrial obelin).
The cells were cultivated at 37° C. and 5% CO2 in Dulbecco's modified Eagle's Medium/NUT mix F12 with L-glutamine which additionally contains 10% (v/v) inactivated foetal calf serum, 1 mM sodium pyruvate, 0.9 mM sodium bicarbonate, 50 U/ml penicillin, 50 μg/ml streptomycin, 2.5 μg/ml amphotericin B and 1 mg/ml Geneticin. The cells were passaged with enzyme-free Hank's-based cell dissociation buffer. All cell culture reagents used are from Invitrogen (Carlsbad, USA).
Luminescence measurements were carried out on white 384-well microtitre plates. 2000 cells/well were plated in a volume of 25 μl and cultivated for one day at 30° C. and 5% CO2 in cell culture medium with coelenterazine (α2A and α2B: 5 μg/ml; α1a/c and α2C: 2.5 μg/ml). Serial dilutions of the test substances (10 μl) were added to the cells. After 5 minutes, noradrenalinee was added to the cells (35 μl; final concentrations: 20 nM (α1a/c and α2C) or 200 nM (α2A and α2B)), and the emitted light was measured for 50 seconds using a CCD (charge-coupled device) camera (Hamamatsu Corporation, Shizuoka, Japan) in a light-tight box. The test substances were tested up to a maximum concentration of 10 μM. The IC50 values were calculated from the appropriate dose-response curves.

SMILES	IC50 [nM]
COc1ccccc1OCc1ccc(C(=O)N2CCC(N3CCCC(C)C3)CC2)cc1 (centres unmarked) [Example 10, {4-[(2-Methoxyphenoxy)methyl]phenyl}[3-methyl-1,4′-bipiperidin-1′-yl]methanone]	96
Cc1cc(C)n(Cc2ccc(C(=O)N3CCC(N4CCCC(C)C4)CC3)cc2)n1 (centres unmarked) [Example 11, {4-[(3,5-Dimethyl-1H-pyrazol-1-yl)methyl]phenyl}(3-methyl-1,4′-bipiperidin-1′-yl)methanone]	167
CC1CCCN(C2CCN(C(=O)c3ccc(C(C)(C)C)cc3O)CC2)C1 (centres unmarked) [Example 12, (2-Hydroxy-4-tert-butylphenyl)(3-methyl-1,4′-bipiperidin-1′-yl)methanone]	87
CCOCc1ccc(C(=O)N2CCC(N3CCCC(C)C3)CC2)cc1 (centres unmarked) [Example 13, [4-(Ethoxymethyl)phenyl](3-methyl-1,4′-bipiperidin-1′-yl)methanone]	267
CC1CCCN(C2CCN(C(=O)c3ccc(COc4ccccc4)cc3)CC2)C1 (centres unmarked) [Example 14, [4-(Phenoxymethyl)phenyl](3-methyl-1,4′-bipiperidin-1′-yl)methanone]	115
COc1cc(C(C)(C)C)ccc1C(=O)N1CCC(N2CCCC(C)C2)CC1 (centres unmarked) [Example 15, (4-tert-Butyl-2-methoxyphenyl)(3-methyl-1,4′-bipiperidin-1′-yl)methanone]	98
CC(C)(C)c1ccc(C(=O)N2CCC(N3CCCC(OC(=O)NC4CC4)C3)CC2)cc1 (centres unmarked) [Example 16, 1′-(4-tert-Butylbenzoyl)-1,4′-bipiperidin-3-yl cyclopropylcarbamate]	380
CC1=C(C)CN(C2CCN(C(=O)c3ccc(C(C)(C)C)cc3)CC2)CC1 [Example 17, 1-[1-(4-tert-Butylbenzoyl)piperidin-4-yl]-4,5-dimethyl-1,2,3,6-tetrahydropyridine]	34
Cc1nnc(C2CCCN(C3CCN(C(=O)c4ccc(C(C)(C)C)cc4)CC3)C2)o1 (centres unmarked) [Example 18, (4-tert-Butylphenyl) [3-(5-methyl-1,3,4-oxadiazol-2-yl)-1,4′-bipiperidin-1′-yl]methanone]	129
COCC1CCCN(C2CCN(C(=O)c3ccc(C(C)(C)C)cc3)CC2)C1 (centres unmarked) [Example 19, (4-tert-Butylphenyl)[3-(methoxymethyl)-1,4′-bipiperidin-1′-yl]methanone]	8
Cc1n[nH]c(C2CCCN(C3CCN(C(=O)c4ccc(C(C)(C)C)cc4)CC3)C2)n1 (centres unmarked) [Example 21, 1-[1-(4-tert-Butylbenzoyl)piperidin-4-yl]-3-(3-methyl-1H-1,2,4-triazol-5-yl)piperidine trifluoroacetic acid salt]	49
COC(=O)c1ccc(C(=O)N2CCC(N3CCCC(C)C3)CC2)cc1 (centres unmarked) [Example 22, Methyl 4-[(3-methyl-1,4′-bipiperidin-1′-yl)carbonyl]benzoate]	940
CC1CCCN(C2CCN(C(=O)c3ccc(CC4(C)COC4)cc3)CC2)C1 (centres unmarked) [Example 23, (3-Methyl-1,4′-bipiperidin-1′-yl){4-[(3-methyloxetan-3-yl)methyl]phenyl}methanone]	136
CCOC(=O)C1CCCN(C2CCN(C(=O)c3ccc(CC4(C)COC4)cc3)CC2)C1 (centres unmarked) [Example 24, Ethyl 1′-{4-[(3-methyloxetan-3-yl)methyl]benzoyl}-1,4′-bipiperidine-3-carboxylate]	17
CC1CCCN(C2CCN(C(=O)c3ccc(C4(C)COC4)cc3)CC2)C1 (centres unmarked) [Example 25, (3-Methyl-1,4′-bipiperidin-1′-yl) [4-(3-methyloxetan-3-yl)phenyl]methanone]	101
CCOC(=O)C1CCCN(C2CCN(C(=O)c3ccc(C4(C)COC4)cc3)CC2)C1 (centres unmarked) [Example 26, Ethyl 1′-[4-(3-methyloxetan-3-yl)benzoyl]-1,4′-bipiperidine-3-carboxylate]	12
CCOC(=O)C(C)(C)c1ccc(C(=O)N2CCC(N3CCCC(C)C3)CC2)cc1 (centres unmarked) [Example 27, 1-{1-[4-(1-Ethoxy-2-methyl-1-oxopropan-2-yl)benzoyl]piperidin-4-yl}-3-methylpiperidine trifluoroacetic acid salt]	162
CC1CCCN(C2CCN(C(=O)c3ccc(C(C)(C)CO)cc3)CC2)C1 (centres unmarked) [Example 28, 1-{1-[4-(1-Hydroxy-2-methylpropan-2-yl)benzoyl]piperidin-4-yl}-3-methylpiperidine trifluoroacetic acid salt]	156
CCOC(=O)C1CCCN(C2CCN(C(=O)c3ccc(C(C)(C)C(=O)OCC)cc3)CC2)C1 (centres unmarked) [Example 29, 3-(Ethoxycarbonyl)-1-{1-[4-(1-ethoxy-2-methyl-1-oxopropan-2-yl)benzoyl]piperidin-4-yl}piperidine trifluoroacetic acid salt]	29
CCOC(=O)C1(c2ccc(C(=O)N3CCC(N4CCCC(C)C4)CC3)cc2)CC1 (centres unmarked) [Example 30, 1-(1-{4-[1-(Ethoxycarbonyl)cyclopropyl]benzoyl}piperidin-4-yl)-3-methylpiperidine trifluoroacetic acid salt]	166
CC1CCCN(C2CCN(C(=O)c3ccc(C4(CO)CC4)cc3)CC2)C1 (centres unmarked) [Example 31, 1-(1-{4-[1-(Hydroxymethyl)cyclopropyl]benzoyl}piperidin-4-yl)-3-methylpiperidine trifluoroacetic acid salt]	403
CCOC(=O)c1ccc(C(=O)N2CCC(N3CCCC(C)C3)CC2)cc1 (centres unmarked) [Example 32, 1-{1-[4-(Ethoxycarbonyl)benzoyl]piperidin-4-yl}-3-methylpiperidine trifluoroacetic acid salt]	222
CCOC(=O)Cc1ccc(C(=O)N2CCC(N3CCCC(C)C3)CC2)cc1 (centres unmarked) [Example 33, 1-{1-[4-(2-Ethoxy-2-oxoethyl)benzoyl]piperidin-4-yl}-3-methylpiperidine trifluoroacetic acid salt]	497
CCOC(=O)Cc1ccc(C(=O)N2CCC(N3CCCC(C(=O)OCC)C3)CC2)cc1 (centres unmarked) [Example 34, 3-(Ethoxycarbonyl)-1-{1-[4-(2-ethoxy-2-oxoethyl)benzoyl]piperidin-4-yl}piperidine trifluoroacetic acid salt]	86
CCCCN(C)C(=O)c1ccc(C(=O)N2CCC(N3CCCC(C)C3)CC2)cc1 (centres unmarked) [Example 35, N-Butyl-N-methyl-4-[(3-methyl-1,4′-bipiperidin-1′-yl)carbonyl]benzamide]	124
COCCNC(=O)c1ccc(C(=O)N2CCC(N3CCCC(C)C3)CC2)cc1 (centres unmarked) [Example 36, N-(2-Methoxyethyl)-4-[(3-methyl-1,4′-bipiperidin-1′-yl)carbonyl]benzamide]	479
CCN(CCOC)C(=O)c1ccc(C(=O)N2CCC(N3CCCC(C)C3)CC2)cc1 (centres unmarked) [Example 37, 1-(1-{4-[Ethyl-(2-methoxyethyl)carbamoyl]benzoyl}piperidin-4-yl)-3-methylpiperidine trifluoroacetic acid salt]	406
CC1CCCN(C2CCN(C(=O)c3ccc(C(=O)NC(C)(C)C)cc3)CC2)C1 (centres unmarked) [Example 38, 1-{1-[4-(tert-Butylcarbamoyl)benzoyl]piperidin-4-yl}-3-methylpiperidine trifluoroacetic acid salt]	139
CC1CCCN(C2CCN(C(=O)c3ccc(-c4cnco4)cc3)CC2)C1 (centres unmarked) [Example 39, (3-Methyl-1,4′-bipiperidin-1′-yl) [4-(1,3-oxazol-5-yl)phenyl]methanone]	244
